Assay results reported in patent US12209096B2, “Compounds and compositions for inducing chondrogenesis” (NOVARTIS AG, priority 2017, dated 2025).

Tested on: NHACs
Assay: calcium flux assay
Assay type: cell-based, human
Conditions: Homo sapiens; for Emax: read-out: (A) % Efficacy
Outline: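 FLIPR fluorescence (ex 470–495 nm, em 515–575 nm) was read before and after compound dispense at the indicated dose. Chondrocytes (NHACs), 2000 cells/well, had been dye-loaded 24 h after plating with Calcium 5 in HBSS/HEPES plus 5 mM probenecid, 1 h, room temperature.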

Structure (SMILES) | EC50 | Emax
Nc1ncc([C@H]2[C@H]3O[C@H](C[C@@H]3F)[C@@H]2C(=O)Nc2ccc(Cl)c(Cl)c2)cn1 [Example 113, (1R,2R,3S,4R,5S)-3-(2-aminopyrimidin-5-yl)-N-(3,4-dichlorophenyl)-5-fluoro-7-oxabicyclo[2.2.1]heptane-2-carboxamide] | 30 µM | 103%
O=C(Nc1ccc(Cl)c(Cl)c1)[C@H]1[C@@H](c2cnc(C(F)(F)F)nc2)[C@H]2O[C@@H]1C[C@@H]2O [Example 62, (1R,2S,3S,4R,5S)—N-(3,4-dichlorophenyl)-5-hydroxy-3-(2-(trifluoromethyl)pyrimidin-5-yl)-7-oxabicyclo[2.2.1]heptane-2-carboxamide] | 8.2 µM | 61%
Cc1ccc([C@H]2[C@H]3O[C@H](C[C@H]3F)[C@H]2C(=O)Nc2ccc(Cl)c(Cl)c2)cn1 [Example 64, (1R,2S,3S,4R,5R)—N-(3,4-dichlorophenyl)-5-fluoro-3-(6-methylpyridin-3-yl)-7-oxabicyclo[2.2.1]heptane-2-carboxamide] | 21 µM | 253%
O=C(Nc1cccc(C(F)(F)F)c1)[C@@H]1[C@@H](c2ccncc2)[C@H]2O[C@@H]1C[C@@H]2O [Example 88, (1R,2R,3S,4R,5S)-5-hydroxy-3-(pyridin-4-yl)-N-(3-(trifluoromethyl)phenyl)-7-oxabicyclo[2.2.1]heptane-2-carboxamide] | > 50 µM | 27%
O=C(Nc1ccc(Cl)c(Cl)c1)[C@H]1[C@@H](c2cnc(F)nc2)[C@H]2O[C@@H]1C[C@@H]2O [Example 61, (1R,2S,3S,4R,5S)—N-(3,4-dichlorophenyl)-3-(2-fluoropyrimidin-5-yl)-5-hydroxy-7-oxabicyclo[2.2.1]heptane-2-carboxamide] | > 50 µM | 24%
Cc1cc([C@@H]2[C@@H]3O[C@@H]([C@H]4C[C@H]43)[C@H]2C(=O)Nc2cccc(C(F)(F)F)c2)ccn1 (single isomer, unassigned) [Example 121b] | 22 µM | 92%
Cc1cc([C@@H]2[C@@H](C(=O)Nc3cccc(C(F)(F)F)c3)[C@@H]3O[C@H]2C[C@H]3F)ccn1 [Example 108, (1S,2R,3S,4S,6R)-6-fluoro-3-(2-methylpyridin-4-yl)-N-(3-(trifluoromethyl)phenyl)-7-oxabicyclo[2.2.1]heptane-2-carboxamide] | 27 µM | 137%
Cc1ncc([C@H]2[C@H]3O[C@H]([C@@H]4C[C@@H]43)[C@H]2C(=O)Nc2ccc(Cl)c(Cl)c2)cn1 [Example 42, (1S,2S,4R,5R,6S,7S)—N-(3,4-dichlorophenyl)-7-(2-methylpyrimidin-5-yl)-8-oxatricyclo[3.2.1.0^2,4]octane-6-carboxamide] | 18 µM | 57%
Cc1cc([C@H]2[C@H]3O[C@H]([C@@H]4C[C@@H]43)[C@@H]2C(=O)Nc2ccc(Cl)c(C#N)c2)ccn1 [Example 66, (1S,2S,4R,5R,6R,7S)—N-(4-chloro-3-cyanophenyl)-7-(2-methylpyridin-4-yl)-8-oxatricyclo[3.2.1.0^2,4]octane-6-carboxamide] | 20 µM | 179%
O=C(Nc1cnc(Cl)c(Cl)c1)[C@H]1[C@@H]2O[C@@H]([C@H]3C[C@H]32)[C@@H]1c1ccnc(F)c1F (single isomer, unassigned) [Example 72] | 7.7 µM | 208%
COc1cc([C@H]2[C@H]3O[C@H](C[C@H]3F)[C@H]2C(=O)Nc2ccc(Cl)c(Cl)c2)ccn1 [Example 65, (1R,2S,3S,4R,5R)—N-(3,4-dichlorophenyl)-5-fluoro-3-(2-methoxypyridin-4-yl)-7-oxabicyclo[2.2.1]heptane-2-carboxamide] | 18 µM | 169%
Cc1cc([C@H]2[C@H]3O[C@H](C[C@@H]3F)[C@@H]2C(=O)Nc2cnc(Cl)c(Cl)c2)ccn1 [Example 109, (1R,2R,3S,4R,5S)—N-(5,6-dichloropyridin-3-yl)-5-fluoro-3-(2-methylpyridin-4-yl)-7-oxabicyclo[2.2.1]heptane-2-carboxamide] | 28 µM | 164%
COc1ccc(NC(=O)[C@@H]2[C@@H]3O[C@@H]([C@H]4C[C@H]43)[C@@H]2c2ccc(C)nc2)cn1 (racemic) [Example 2, rac-(1S,2S,4R,5R,6S,7S)—N-(6-methoxypyridin-3-yl)-7-(6-methylpyridin-3-yl)-8-oxatricyclo[3.2.1.0^2,4]octane-6-carboxamide] | 0.3 µM | 45%
Nc1ncc([C@H]2[C@H]3O[C@H]([C@@H]4C[C@@H]43)[C@@H]2C(=O)Nc2ccc(Cl)c(Cl)c2)cn1 [Example 132, (1S,2S,4R,5R,6R,7S)-7-(2-aminopyrimidin-5-yl)-N-(3,4-dichlorophenyl)-8-oxatricyclo[3.2.1.0^2,4]octane-6-carboxamide] | 18 µM | 321%
O=C(Nc1ccc(Cl)c(Cl)c1)[C@H]1[C@@H]2O[C@@H](C[C@H]2F)[C@@H]1c1ccnc(F)c1 [Example 112, (1S,2R,3S,4S,6R)—N-(3,4-dichlorophenyl)-6-fluoro-3-(2-fluoropyridin-4-yl)-7-oxabicyclo[2.2.1]heptane-2-carboxamide] | 28 µM | 99%
O=C(Nc1ccc(Cl)c(Cl)c1)[C@@H]1[C@@H](c2ccnc(C(F)(F)F)c2)[C@H]2O[C@@H]1C[C@@H]2O (racemic) [Example 145, rac-(1R,2R,3S,4R,5S)—N-(3,4-dichlorophenyl)-5-hydroxy-3-(2-(trifluoromethyl)pyridin-4-yl)-7-oxabicyclo[2.2.1]heptane-2-carboxamide] | 17 µM | 246%
CN(C)[C@@H]1C[C@H]2O[C@@H]1[C@H](c1ccnc(F)c1)[C@H]2C(=O)Nc1cnc(Cl)c(Cl)c1 [Example 175, (1R,2R,3S,4R,5R)—N-(5,6-dichloropyridin-3-yl)-5-(dimethylamino)-3-(2-fluoropyridin-4-yl)-7-oxabicyclo[2.2.1]heptane-2-carboxamide] | 29 µM | 186%
O=C(Nc1ccc(Cl)c(Cl)c1)[C@H]1[C@H](c2ccnc(F)c2)[C@@H]2O[C@H]1C[C@H]2O [Example 142b, (1S,2S,3R,4S,5R)-N-(3,4-dichlorophenyl)-3-(2-fluoropyridin-4-yl)-5-hydroxy-7-oxabicyclo[2.2.1]heptane-2-carboxamide] | 0.79 µM | 54%
O=C(Nc1cccc(C(F)(F)F)c1)[C@H]1[C@@H]2O[C@@H]([C@@H](O)[C@H]2O)[C@@H]1c1ccncc1 [Example 159, (1S,2R,3S,4R,5S,6R)-5,6-dihydroxy-3-(pyridin-4-yl)-N-(3-(trifluoromethyl)phenyl)-7-oxabicyclo[2.2.1]heptane-2-carboxamide] | > 50 µM | 11%
Cc1cc([C@H]2[C@H]3O[C@H]([C@@H]4C[C@@H]43)[C@H]2C(=O)Nc2cnc(Cl)c(Cl)c2)ccn1 (single isomer, unassigned) [Example 45] | 14 µM | 32%
Cc1cc([C@H]2[C@H]3O[C@H](C[C@@H]3F)[C@@H]2C(=O)Nc2cccc(C(F)(F)F)c2)ccn1 [Example 107, (1R,2R,3S,4R,5S)-5-fluoro-3-(2-methylpyridin-4-yl)-N-(3-(trifluoromethyl)phenyl)-7-oxabicyclo[2.2.1]heptane-2-carboxamide] | 12 µM | 139%
